Data as given in paper PMC5656596, “Yucasin DF, a potent and persistent inhibitor of auxin biosynthesis in plants” (Scientific Reports, 2017).

Tests used:
AtYUC6 (YUC6) [1] = biological target: T1, AtYUC6 (YUC6) (Arabidopsis thaliana, UniProt Q8VZ59); assay: competition with photoaffinity probe labelling; type: binding; details: active site
T1 construct: purified recombinant
T1 sequence (Q8VZ59 1-417): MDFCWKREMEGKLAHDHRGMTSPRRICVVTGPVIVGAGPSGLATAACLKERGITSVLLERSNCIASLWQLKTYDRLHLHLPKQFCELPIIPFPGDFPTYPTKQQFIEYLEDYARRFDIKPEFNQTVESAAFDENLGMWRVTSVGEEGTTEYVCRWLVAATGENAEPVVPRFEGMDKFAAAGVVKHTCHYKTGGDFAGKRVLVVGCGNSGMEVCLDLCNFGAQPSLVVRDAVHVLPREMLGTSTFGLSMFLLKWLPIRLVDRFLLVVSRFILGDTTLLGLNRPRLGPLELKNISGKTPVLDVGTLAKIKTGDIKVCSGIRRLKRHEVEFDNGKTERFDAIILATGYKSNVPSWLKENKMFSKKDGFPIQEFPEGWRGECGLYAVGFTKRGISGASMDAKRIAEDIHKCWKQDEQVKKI

[2] = biological target: T2, AtYUC1 (AtYUC1-His, YUC1) (Arabidopsis thaliana, UniProt Q9SZY8); assay: LC-MS/MS of IAA formed from IPA; type: biochemical; details: 20 µM IPA, 40 µM FAD, 1 mM NADPH, 10 mM Tris-HCl pH 7.5, 35 °C, 30 min
T2 construct: recombinant His-tagged, pET-53-DEST, E. coli BL21 Star (DE3), TALON purified, tag kept
T2 sequence (Q9SZY8 1-414): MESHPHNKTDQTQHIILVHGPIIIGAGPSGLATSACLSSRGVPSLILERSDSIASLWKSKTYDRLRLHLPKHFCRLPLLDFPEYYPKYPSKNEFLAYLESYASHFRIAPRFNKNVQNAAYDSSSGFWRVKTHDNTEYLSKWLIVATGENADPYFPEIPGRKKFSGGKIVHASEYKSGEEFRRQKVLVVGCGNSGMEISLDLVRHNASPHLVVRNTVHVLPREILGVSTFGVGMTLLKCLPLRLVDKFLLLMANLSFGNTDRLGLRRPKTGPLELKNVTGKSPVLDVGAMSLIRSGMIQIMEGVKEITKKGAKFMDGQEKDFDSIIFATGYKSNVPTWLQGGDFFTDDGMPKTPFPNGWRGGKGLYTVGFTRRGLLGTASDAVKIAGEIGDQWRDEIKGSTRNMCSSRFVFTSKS

AtYUC6 (YUC6) [3] = biological target: T1, AtYUC6 (YUC6); assay: photoaffinity labelling, Staudinger-Bertozzi ligation to fluorescent phosphine, SDS-PAGE; type: binding; details: 20 µM probe, 254 nm UV, on ice, 10 mM phosphate buffer; active site, competitive with IPA and PPA; covalent; labelled compound

For `O=C(O)C(=O)Cc1c[nH]c2ccccc12` [IPA], which “competition with photoaffinity probe labelling” value (AtYUC6 (YUC6) [1]; 200 µM IPA against 20 µM probe) is on record?
Its value is “The fluorescent signal disappeared when the probe was photoactivated in the presence of the substrates”.

For `O=C(O)C(=O)Cc1ccccc1` [PPA], which “competition with photoaffinity probe labelling” value (AtYUC6 (YUC6) [1]; 200 µM PPA against 20 µM probe) is on record?
The value was “The fluorescent signal disappeared when the probe was photoactivated in the presence of the substrates”.

For `Fc1cccc(F)c1-c1n[nH]c(=S)[nH]1` [compound 1, 5-[2,6-difluorophenyl]-2,4-dihydro-[1,2,4]-triazole-3-thione], which “enzyme activity at 1 or 10 μM inhibitor” value [2] is on record?
The value was “we measured the inhibitory activity of YDF on the recombinant AtYUC1 enzyme”.

`[N-]=[N+]=NCc1cc(N=[N+]=[N-])cc(-c2n[nH]c(=S)[nH]2)c1` [photoaffinity yucasin probe] was tested. Which “photoaffinity labelling, Staudinger-Bertozzi ligation to fluorescent phosphine,” value (AtYUC6 (YUC6) [3]) did it give?
Its value is “A fluorescent signal from the photoaffinity-labeled probe of YUC6 was detected”.

How did the “enzyme activity at 1 or 10 μM inhibitor” value [2] turn out when `S=c1[nH]nc(-c2ccc(Cl)cc2)[nH]1` [yucasin, 5-[4-chlorophenyl]-2,4-dihydro-[1,2,4]-triazole-3-thione] was run?
Its value is “Yucasin inhibited the recombinant YUC1 enzyme activity more potent than YDF”.
